Experimental data reported in PMC10188607, “Quaternization of high molecular weight chitosan for increasing intestinal drug absorption using Caco-2 cells as an in vitro intestinal model” (Scientific Reports, 2023).

Columns and labels:
[1] = molecular target: recombinant human P-gp membranes (Homo sapiens, UniProt P08183)
Description: Effect of 600-HPTChC65 on P-gp ATPase activity was determined in recombinant human P-gp membranes with the use of the P-gp-Glo™ assay (Promega, Madison, Wisconsin), according to the manufacturer’s instruction.

Caco-2 monolayers = assay: TEER measurement of tight junction integrity in Caco-2 monolayers; type: cell-based, Human; conditions: inhibitor pre-incubated 30 min; for effect of inhibitor on 600-HPTChC65-mediated TEER reduction / tight junction opening: 0.005% (w/v) 600-HPTChC65, 2-h treatment; for effect of inhibitor on chitosan-mediated TEER reduction / tight junction opening: 0.005% (w/v) 600 kDa chitosan, 2-h treatment
Description: Human colon adenocarcinoma Caco-2 cell line was obtained from the American Type Culture Collection (Manassas, VA, USA). The cells were maintained in complete medium (CM; Dulbeco's modified Eagle's medium supplemented with 10% (v/v) fetal bovine serum, 100 units/mL penicillin, 100 µg/mL streptomycin, 1% (v/v) non-essential amino acids and 2 mM L-glutamine) at 37 °C in a humidified atmosphere of 5% CO2. Cells were grown at a density of 6 × 10^4 and 1.5 × 10^5 cells/cm^2 on a transwell insert (0.4 µm pore size; Corning Life Sciences, Tewksbury, MA, USA) for 21 days and 14 days in paracellular and transcellular experiments, respectively. At the start of each experiment, the integrity of the Caco-2 monolayer was assessed by measurement of the transepithelial electrical resistance (TEER), using a chopstick-like electrode connected to a Millicell-ERS® (Millipore, Bedford, MA, USA). Cell monolayers with a TEER value of greater than 300 Ω cm^2 were used in each experiment.
The 21 day-aged Caco-2 monolayers were incubated with transport buffers, i.e., 10 mM MES-HBSS, pH 6.5 on the apical side (the donor compartment) and 25 mM HEPES-HBSS, pH 7.4 on the basolateral side (the receiver compartment) for 30 min at 37 °C. Subsequently, the test chitosan in 1% (w/v) acetic acid was added to the apical side and incubated at 37 °C on an orbital shaker for 4 h. To investigate the tight junction signaling pathway, the monolayers were incubated with either ML-7, RO-318220 or genistein for 30 min at 37 °C prior to addition of the test chitosan. The TEER values were monitored at the indicated time points during the treatment period.
For the measurement of tight junction recovery, each monolayer was incubated with the test chitosan for 1 h prior to replacement with CM for another 24 h in a CO2 incubator at 37 °C. The TEER value was measured at the indicated time points during the 24-h chitosan withdrawal period.

Chain of recombinant human P-gp membranes (P08183 whole entry): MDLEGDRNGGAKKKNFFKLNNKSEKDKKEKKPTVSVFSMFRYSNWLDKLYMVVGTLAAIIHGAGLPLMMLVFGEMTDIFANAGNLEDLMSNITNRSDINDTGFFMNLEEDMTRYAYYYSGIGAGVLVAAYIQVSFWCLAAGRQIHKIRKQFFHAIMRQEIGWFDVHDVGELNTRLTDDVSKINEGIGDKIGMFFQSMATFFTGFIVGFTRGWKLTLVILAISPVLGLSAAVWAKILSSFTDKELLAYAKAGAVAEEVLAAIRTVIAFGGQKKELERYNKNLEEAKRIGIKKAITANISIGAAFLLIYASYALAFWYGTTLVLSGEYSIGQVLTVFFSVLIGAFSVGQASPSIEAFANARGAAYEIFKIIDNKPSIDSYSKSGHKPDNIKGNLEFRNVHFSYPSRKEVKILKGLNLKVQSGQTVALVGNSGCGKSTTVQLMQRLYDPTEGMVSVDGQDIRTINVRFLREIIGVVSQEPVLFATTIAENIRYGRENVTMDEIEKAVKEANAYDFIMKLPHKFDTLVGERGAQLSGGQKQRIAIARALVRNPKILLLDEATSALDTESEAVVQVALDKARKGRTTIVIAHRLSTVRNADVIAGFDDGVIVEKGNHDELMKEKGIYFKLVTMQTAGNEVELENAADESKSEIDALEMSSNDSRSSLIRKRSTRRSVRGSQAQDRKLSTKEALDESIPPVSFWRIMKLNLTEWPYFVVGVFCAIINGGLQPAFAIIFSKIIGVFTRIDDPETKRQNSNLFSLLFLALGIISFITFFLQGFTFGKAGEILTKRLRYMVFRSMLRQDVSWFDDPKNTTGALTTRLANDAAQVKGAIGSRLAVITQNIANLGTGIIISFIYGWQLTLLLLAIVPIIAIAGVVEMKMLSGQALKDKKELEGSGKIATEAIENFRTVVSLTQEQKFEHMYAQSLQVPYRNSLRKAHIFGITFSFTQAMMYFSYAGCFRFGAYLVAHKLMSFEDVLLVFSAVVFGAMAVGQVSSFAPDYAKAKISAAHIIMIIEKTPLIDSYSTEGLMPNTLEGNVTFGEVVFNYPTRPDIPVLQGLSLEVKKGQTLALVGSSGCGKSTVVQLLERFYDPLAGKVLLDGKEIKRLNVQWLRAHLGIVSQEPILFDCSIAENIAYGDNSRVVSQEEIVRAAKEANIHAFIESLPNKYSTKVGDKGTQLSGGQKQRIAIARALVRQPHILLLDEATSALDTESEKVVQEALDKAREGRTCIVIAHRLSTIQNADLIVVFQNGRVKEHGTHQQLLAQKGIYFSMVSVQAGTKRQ

Molecule | P-gp ATPase activity (change in luminescence signal) [1] | effect of inhibitor on 600-HPTChC65-mediated TEER reduction / tight junction opening (Caco-2 monolayers) | effect of inhibitor on chitosan-mediated TEER reduction / tight junction opening (Caco-2 monolayers)
N-(2-hydroxypropyl)-3-trimethylammonium chitosan chloride [600-HPTChC65] | increased ATPase activity |  | 
Cn1cc(C2=C(c3cn(CCCSC(=N)N)c4ccccc34)C(=O)NC2=O)c2ccccc21 [RO-318220] |  | did not prevent | no significant effect
O=c1c(-c2ccc(O)cc2)coc2cc(O)cc(O)c12 [genistein] |  | did not prevent | no significant effect
O=S(=O)(c1cccc2c(I)cccc12)N1CCCNCC1 [ML-7] |  | did not prevent | partially prevent
